A value given as a limit tells only on which side of the number the result lay.

As a reminder, the IC50 is the concentration at which inhibition is half-maximal. A high value points to weaker potency.

Sequence of human SCD1 (O00767 whole entry): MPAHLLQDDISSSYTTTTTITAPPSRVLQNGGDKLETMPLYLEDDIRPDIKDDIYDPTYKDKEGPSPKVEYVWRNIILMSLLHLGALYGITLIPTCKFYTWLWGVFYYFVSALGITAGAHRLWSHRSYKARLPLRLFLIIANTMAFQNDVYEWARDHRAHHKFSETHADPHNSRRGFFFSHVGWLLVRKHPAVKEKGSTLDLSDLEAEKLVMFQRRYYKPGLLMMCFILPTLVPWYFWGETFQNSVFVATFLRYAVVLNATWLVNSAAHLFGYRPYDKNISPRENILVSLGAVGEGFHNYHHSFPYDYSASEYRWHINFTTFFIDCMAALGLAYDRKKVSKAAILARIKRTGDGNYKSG

The assay addresses human SCD1 (Homo sapiens (Human), UniProt O00767). The assay can be described thus: Yeast growth assay, strain expressing human SCD1 as the sole desaturase (reduced growth as surrogate for SCD inhibition). Type of assay: cell-based. As to conditions: yeast with OLE1 deleted expressing human SCD1 from a plasmid; growth read as OD600 after 40 h at 30° C.; top drug concentration 33.3 μM. The procedure: Strains expressing SCD1 or SCD5 as the sole desaturase, the human SCD1 and SCD5 genes were used to evaluate inhibition of SCD1/SCD5 using reduced growth as a surrogate for SCD inhibition. These yeast strains express human SCD1 or SCD5 from a plasmid harbored in a strain in which the yeast OLE1 gene is deleted.
All compound profiling experiments were performed using the same basic protocol. Yeast were cultured using standard techniques in complete synthetic media lacking uracil and containing yeast nitrogen base supplemented with 2% (w/v) glucose (SD-Ura) Starter cultures were inoculated in 3 mL SD-Ura media containing 0.01% tween and 0.2 mM palmitoleic and oleic acid. Cultures were incubated overnight in a 30° C. shaker incubator (225 rpm). Saturated morning cultures were centrifuged, washed in SD-Ura media lacking TWEEN-20 and fatty acids, and then diluted 1:20 in fresh SD-Ura media also lacking TWEEN-20 and fatty acids.
Compound administration was performed in two separate steps. First, 15 μL of SD-Ura was dispensed into clear 384-well assay plates using a MULTIDROP™ Combi reagent dispenser. […] The cultures described above were centrifuged and washed with media lacking TWEEN-20 or oleic and palmitoleic acids.
After yeast delivery, assay plates were incubated under humidified conditions at 30° C. for 40 h. Yeast growth was monitored by reading the OD600 of each well using a microplate reader (Perkin Elmer EnVision™).
In the case of `O=C(Nc1cnn(Cc2cccc(F)c2)c1)c1cc(N2CCCCC2)on1` [Compound 102, N-(1-(3-fluorobenzyl)-1H-pyrazol-4-yl)-5-(piperidin-1-yl)isoxazole-3-carboxamide], half-maximal inhibition (IC50) was put at 0.036 µM.
The value for `O=C(Nc1cnn(Cc2cnccc2C(F)(F)F)c1)c1noc2c1CCCC2` [Compound 194, N-(1-{[4-(trifluoromethyl)pyridin-3-yl]methyl}-1H-pyrazol-4-yl)-4,5,6,7-tetrahydro-1,2-benzoxazole-3-carboxamide] was 25 µM; that for `Cn1cc(-c2cc(C(=O)N3CCC[C@H]3c3ccccc3)no2)ccc1=O` [Compound 429] was 36.3 µM; that for `O=C(Nc1cnn(Cc2cc(F)ccc2Cl)c1)c1cc(-c2ccco2)on1` [Compound 28, N-(1-(2-chloro-5-fluorobenzyl)-1H-pyrazol-4-yl)-5-(furan-2-yl)isoxazole-3-carboxamide] was more than 45 µM.
In the case of `O=C(c1cc(-c2ccc3c(c2)OCO3)on1)N1CCCC1c1cc(Br)no1` (stereo not drawn) [Compound 412], the IC50 is more than 45 µM.
The molecule `O=C(Nc1cnn(Cc2cnccc2C(F)(F)F)c1)c1cc(-c2cnco2)on1` [Compound 171, 5-(oxazol-5-yl)-N-(1-((4-(trifluoromethyl)pyridin-3-yl)methyl)-1H-pyrazol-4-yl)isoxazole-3-carboxamide] had an IC50 of 19 µM. This counts as double-digit micromolar.
On to `O=C(c1cc(-c2ccc3c(c2)OCO3)on1)N1CCC[C@H]1c1ccon1` [Compound 426], for which the IC50 was more than 45 µM.
Regarding `N#Cc1ccc(-c2cc(C(=O)N3CCC[C@H]3c3ccccc3)no2)nc1` [Compound 435], the IC50 is more than 45 µM.
Turning to `O=C(Nc1cnn(Cc2ccccc2)c1)c1cc(-c2cnco2)on1` [Compound 149, N-(1-benzyl-1H-pyrazol-4-yl)-5-(oxazol-5-yl)isoxazole-3-carboxamide], the IC50 was more than 45 µM.
The figure for `N#Cc1ccc(C2CCCN2C(=O)c2cc(-c3ccc4c(c3)OCO4)on2)cc1` (stereo not drawn) [Compound 395] is more than 45 µM.
For `Cc1nn(C)c2cc(-c3cc(C(=O)N4COCC4c4ccccc4)no3)ccc12` (stereo not drawn) [Compound 419], the IC50 is more than 45 µM.
The molecule `O=C(Nc1cnn(Cc2ccc(F)cc2)c1)c1cc(-c2ccco2)on1` [Compound 18, N-[1-[(4-fluorophenyl)methyl]pyrazol-4-yl]-5-(2-furyl)isoxazole-3-carboxamide] gave an IC50 of more than 45 µM.
Molecule `COc1ccc([C@@H]2CCCN2C(=O)c2cc(-c3ccc4c(c3)OCO4)on2)cc1` [Compound 359] showed an IC50 of more than 45 µM.
The value for `O=C(Nc1cnn(Cc2cccc(C(F)(F)F)c2)c1)c1cc(-c2ccco2)on1` [Compound 20, 5-(2-furyl)-N-[1-[[3-(trifluoromethyl)phenyl]methyl]pyrazol-4-yl]isoxazole-3-carboxamide] was more than 45 µM; that for `CC(C)(C)OC(=O)N1CCN(c2cc(C(=O)Nc3cnn(Cc4ccccc4)c3)no2)CC1` [Compound 185, tert-butyl 4-(3-(1-benzyl-1H-pyrazol-4-ylcarbamoyl)isoxazol-5-yl)piperazine-1-carboxylate] was 0.012 µM.
Take `O=C(Nc1cnn(Cc2ccccc2)c1)c1cc(-c2ncccc2F)on1` [Compound 122]: half-maximal inhibition (IC50) required 4.7 µM.
The figure for `O=C(c1cc(-c2ccc3c(c2)OCO3)on1)N1CCC(c2cccc(F)c2)CC1` [Compound 309, [5-(1,3-benzodioxol-5-yl)isoxazol-3-yl]-[4-(3-fluorophenyl)-1-piperidyl]methanone] is more than 45 µM; for `O=C(c1cc(-c2ccc3c(c2)OCO3)on1)N1CCOCC1c1ccccc1` (stereo not drawn) [Compound 397] it is more than 45 µM.
As for `O=C(Nc1cnn(CC2CCCCC2)c1)c1cc(-c2ccco2)on1` [Compound 26, N-[1-(cyclohexylmethyl)pyrazol-4-yl]-5-(2-furyl)isoxazole-3-carboxamide], the IC50 was more than 45 µM.
With `O=C(Nc1cnn(Cc2ccccc2)c1)c1cc(-c2nncs2)on1` [Compound 170, N-(1-benzyl-1H-pyrazol-4-yl)-5-(1,3,4-thiadiazol-2-yl)isoxazole-3-carboxamide], the IC50 was found to be 0.131 µM.
The value for `CC(C)c1cc(C(=O)Nc2cnn(Cc3cccc(F)c3)c2)no1` [Compound 60, N-(1-(3-fluorobenzyl)-1H-pyrazol-4-yl)-5-isopropylisoxazole-3-carboxamide] was 0.03 µM.
Turning to `O=C(Nc1cnn(Cc2ccccc2)c1)c1cc(-c2ccccn2)on1` [Compound 8, N-(1-benzylpyrazol-4-yl)-5-(2-pyridyl)isoxazole-3-carboxamide], the IC50 stood at 0.7 µM.
The figure for `COc1cccc(F)c1C1CCCN1C(=O)c1cc(-c2ccc3c(c2)OCO3)on1` (stereo not drawn) [Compound 453] is more than 45 µM; for `O=C(c1cc(-c2ccc(Cl)cn2)on1)N1CC(c2ccccc2)C1` [Compound 241, (5-(5-chloropyridin-2-yl)isoxazol-3-yl)(3-phenylazetidin-1-yl)methanone] it is 3.38 µM.
Regarding `CNC(=O)c1ccc(-c2cc(C(=O)N3CC(c4ccccc4)C3)no2)cc1` [Compound 231, N-methyl-4-(3-(3-phenylazetidine-1-carbonyl)isoxazol-5-yl)benzamide], the IC50 is more than 45 µM.
For the molecule `COc1ccc(C2CCCN2C(=O)c2cc(-c3ccc4c(c3)OC(F)(F)O4)on2)cc1` (stereo not drawn) [Compound 393], the IC50 was more than 45 µM.
Consider `O=C(Nc1cnn(Cc2ccccc2)c1)c1cc(N2CCNCC2)on1` [Compound 190], for which the IC50 was more than 45 µM.
`CC(C)c1cc(C(=O)N2CC(Cc3ccccc3)C2)no1` [Compound 251] gave an IC50 of more than 45 µM.
In turn, `O=C(c1cc(-c2ccc3c(c2)OCO3)on1)N1CCCc2cccc(F)c21` [Compound 264] registered an IC50 of more than 45 µM.
`O=C(c1cc(-c2ccc3c(c2)OCO3)on1)N1CC=C(c2cc(F)ccc2Cl)CC1` [Compound 306, [5-(1,3-benzodioxol-5-yl)isoxazol-3-yl]-[4-(2-chloro-5-fluoro-phenyl)-3,6-dihydro-2H-pyridin-1-yl]methanone] registered an IC50 of 3.27 µM.
Turning to `Cn1nccc1-c1ccc2c(C(=O)N3CCC[C@H]3c3ccccc3)noc2c1` [Compound 454], the IC50 is more than 45 µM.
The molecule `CC1CN(c2ccccc2)CCN1C(=O)c1cc(-c2ccc3c(c2)OCO3)on1` (stereo not drawn) [Compound 270, (5-(benzo[d][1,3]dioxol-5-yl)isoxazol-3-yl)(2-methyl-4-phenylpiperazin-1-yl)methanone] displayed an IC50 of more than 45 µM.
The molecule `O=C(c1cc(-c2ccc3c(c2)OCO3)on1)N1CCCC1c1ccccc1Br` (stereo not drawn) [Compound 390] gave an IC50 of more than 45 µM.
In turn, `O=C(c1cc(-c2ccc3c(c2)OCO3)on1)N1CCCC1c1nc2ccccc2o1` (stereo not drawn) [Compound 461] came in with an IC50 of more than 45 µM.
`O=C(c1cc(-c2ccccc2)on1)N1CCC[C@@H]1c1ccccc1` [Compound 385] displayed an IC50 of more than 45 µM.
The value for `COc1ccc(-c2cc(C(=O)N3CCN(c4ccccc4)CC3)no2)cc1OC` [Compound 274] was more than 45 µM; that for `O=C(c1cc(-c2ccccc2)on1)N1CCC[C@H]1c1ccccc1` [Compound 386] was 30.5 µM; that for `O=C(Nc1cnn(Cc2cnccc2C(F)(F)F)c1)c1cc(N2CCCCC2)on1` [Compound 182, 5-(piperidin-1-yl)-N-(1-((4-(trifluoromethyl)pyridin-3-yl)methyl)-1H-pyrazol-4-yl)isoxazole-3-carboxamide] was more than 45 µM.
Molecule `O=C(Nc1cnn(Cc2ccccc2)c1)c1cc(-c2ccncn2)on1` [Compound 148] gave an IC50 of 4 µM.
The value for `C[C@H]1CCCN1C(=O)c1cc(-c2ccc3c(c2)OCO3)on1` [Compound 369] was more than 45 µM.
Turning to `O=C(c1cc(-c2ccc3c(c2)OCO3)on1)N1CCC(O)(c2ccccc2)CC1` [Compound 300], the IC50 is more than 45 µM.
Take `O=C(c1cc(-c2ccc3c(c2)OCO3)on1)N1CCN(c2ccccc2F)CC1` [Compound 277]: the IC50 was more than 45 µM.
For `Cn1ccnc1C1CCCN1C(=O)c1cc(-c2ccc3c(c2)OCO3)on1` (stereo not drawn) [Compound 446], the IC50 is more than 45 µM.
With `O=C(c1cc(-c2ccc3c(c2)OCO3)on1)N1CCC[C@@H]1C(F)(F)F` [Compound 372], the IC50 was more than 45 µM.
With `CC(C)c1cc(C(=O)Nc2cnn(Cc3cnccc3C(F)(F)F)c2)no1` [Compound 161, 5-isopropyl-N-(1-((4-(trifluoromethyl)pyridin-3-yl)methyl)-1H-pyrazol-4-yl)isoxazole-3-carboxamide], the IC50 came to 25 µM.
`CNC(=O)c1ccc(-c2cc(C(=O)N3CCC(F)(c4ccccc4)CC3)no2)cc1` [Compound 321] came in with an IC50 of more than 45 µM.
`Cn1c(=O)oc2ccc(-c3cc(C(=O)N4CCC[C@H]4c4ccccc4)no3)cc21` [Compound 444] yielded an IC50 of more than 45 µM.
On to `O=C(Nc1cnn(Cc2ccccc2)c1)c1cc(N2CC[C@H](O)C2)on1` [Compound 187], for which it took 15 µM to reach half-maximal inhibition (IC50). In other words, the double-digit micromolar range.
For `O=C(Nc1cnn(Cc2cccc(F)c2)c1)c1cc(C2CCCCC2)on1` [Compound 83, 5-cyclohexyl-N-(1-(3-fluorobenzyl)-1H-pyrazol-4-yl)isoxazole-3-carboxamide], the IC50 was 0.066 µM.
`O=C(c1cc(-c2ccc3c(c2)OCO3)on1)N1CCC[C@H]1C(F)(F)F` [Compound 373] displayed an IC50 of more than 45 µM.
The value for `CC(C)c1cc(C(=O)Nc2cnn(Cc3ccccc3)c2)no1` [Compound 117, N-(1-benzyl-1H-pyrazol-4-yl)-5-isopropylisoxazole-3-carboxamide] was 0.026 µM.
